Measurements as given in patent US20160209428A1, “DIAGNOSTIC AND PREDICTIVE METABOLITE PATTERNS FOR DISORDERS AFFECTING THE BRAIN AND NERVOUS SYSTEM” (THE REGENTS OF THE UNIVERSITY OF CALIFORNIA, priority 2013, published 2016).

Assays:
[1] = tested on: Fragile X (Fmr1) knockout mouse; assay: Social preference and social novelty, Fragile X model; format: in vivo; details: male Fmr1 KO mice, weekly suramin 20 mg/kg ip
Source text: A Fragile X (Fmr1) knockout mouse was used on the FVB strain background. It has the genotype: FVB.129P2-Pde6b^+ Tyr^c-ch Fmr1^tm1Cgr/J (Jackson Stock #004624). The Fmr1^tm1Cgr allele contains a neomycin resistance cassette replacing exon 5 that results in a null allele that makes no FMR mRNA or protein. The control strain used has the genotype: FVB.129P2-Pde6b^+ Tyr^c-ch/AntJ (Jackson Stock #004828). […] The wild-type Pde6b locus from the 129P2 ES cells corrects the retinal degeneration phenotype that produces blindness by 5 weeks of age in typical FVB mice. The Fmr1 locus is X-linked, so males are hemizygous and females are homozygous for the knockout. A metabolomic analysis on Fmr1 knockout mice on the C57BL/6J background was also performed to refine the understanding of which metabolic disturbances were directly related to the Fmr1 knockout, and which were the result of changes in genetic background. For these studies the same Fmr1^tm1Cgr knockout allele bred on the C57BL6/J background was used. These animals had the genotype: B6.129P2-Fmr1^tm1Cgr/J (Jackson Stock#003025). […]
Altered social behavior is a measure of autism-like features in mouse models of autism. […] There was also a 35% reduction in social novelty, as measured by the time spent interacting with a novel mouse compared to a familiar mouse. […]

[2] = tested on: cerebral synaptosomal protein; assay: Western blot analysis of cerebral synaptosomal proteins, Fragile X model; format: in vivo, mouse; details: Fmr1 KO mice
Source text: Twenty μg of cerebral synaptosomal protein was loaded in SDS-polyacrylamide gels (Bis-Tris Gels) and transferred to PVDF membranes. The blots were first stained with Ponceau S, scanned, and the transfer efficiency was quantified by densitometry before blocking with 3% skim milk, and probing with primary and secondary antibodies for signal development by enhanced chemiluminescence (ECL).

[3] = tested on: cerebral synaptosomes; assay: Synaptosome isolation and ultrastructure (electron microscopy); format: in vivo, mouse; details: suramin-treated Fmr1 KO mice
Source text: Cerebral samples were collected, homogenized and synaptosomes isolated by discontinuous Percoll gradient centrifugation, drop dialyzed, glutaraldehyde fixed, post-fixed in osmium tetroxide, embedded, sectioned, and stained with uranyl acetate for transmission electron microscopy. Samples from the FVB control animals (+/−suramin) were not available for study by either electron microscopy or Western analysis.
In the present study of the Fragile X model, saline-treated Fmr1 knockout mice had cerebral synaptosomes that also contained an electron dense matrix, and fragile, hypomorphic post-synaptic densities.

[4] = cerebral synaptosomes, suramin vs saline
[5] = cerebral synaptosomes, listed as suramin

For `Cc1ccc(C(=O)Nc2ccc(S(=O)(=O)O)c3cc(S(=O)(=O)O)cc(S(=O)(=O)O)c23)cc1NC(=O)c1cccc(NC(=O)Nc2cccc(C(=O)Nc3cc(C(=O)Nc4ccc(S(=O)(=O)O)c5cc(S(=O)(=O)O)cc(S(=O)(=O)O)c45)ccc3C)c2)c1` [Suramin, suramin], the “altered social behavior (social preference, social novelty)” value [1] was “corrected”, the “proteins interrogated in cerebral synaptosomes that were changed” value ([2]; suramin vs saline) was 17 of 54 and the “Response to Suramin KO-Sur/KO-Sal: 7-dehydrocholesterol reductase/7DHCR” value ([2]; cerebral synaptosomes) was “Up”. For the same compound, the “Response to Suramin KO-Sur/KO-Sal: APC” value ([2]; cerebral synaptosomes) was “Down”, the “Response to Suramin KO-Sur/KO-Sal: Acetyl-CoA acetyltransferase 2/ACAT2” value ([2]; cerebral synaptosomes) was “None” and the “Response to Suramin KO-Sur/KO-Sal: Akt” value ([2]; cerebral synaptosomes) was “decreased and Down”. The “Response to Suramin KO-Sur/KO-Sal: Amyloid β (Aβ) precursor protein/APP” value ([2]; cerebral synaptosomes) was “Down”, the “Response to Suramin KO-Sur/KO-Sal: C1qA” value ([2]; cerebral synaptosomes) was “Down” and the “Response to Suramin KO-Sur/KO-Sal: CB1” value ([2]; cerebral synaptosomes) was “Down”. The “Response to Suramin KO-Sur/KO-Sal: CB2” value ([2]; cerebral synaptosomes) was “unchanged and None”, the “Response to Suramin KO-Sur/KO-Sal: CPY27A1” value ([2]; cerebral synaptosomes) was “None” and the “Response to Suramin KO-Sur/KO-Sal: Dopamine Receptor D4/D4R” value ([2]; cerebral synaptosomes) was “None”. For the same compound, the “Response to Suramin KO-Sur/KO-Sal: ETFQO/ETFDH” value ([2]; cerebral synaptosomes) was “None”, the “Response to Suramin KO-Sur/KO-Sal: Fragile X mental retardation protein/FMRP” value ([2]; cerebral synaptosomes) was “None” and the “Response to Suramin KO-Sur/KO-Sal: GABA A Receptor beta 3/GABA-β3” value ([2]; cerebral synaptosomes) was “None”. For the same compound, the “Response to Suramin KO-Sur/KO-Sal: GluR1” value ([2]; cerebral synaptosomes) was “Down”, the “Response to Suramin KO-Sur/KO-Sal: HMGCoA Reductase/HMOCoAR” value ([2]; cerebral synaptosomes) was “None” and the “Response to Suramin KO-Sur/KO-Sal: IP3R I” value ([2]; cerebral synaptosomes) was “Up”. The “Response to Suramin KO-Sur/KO-Sal: Indoleamine 2,3-dioxygenase 1/IDO-1” value ([2]; cerebral synaptosomes) was “None”, the “Response to Suramin KO-Sur/KO-Sal: Metabotropic glutamate receptor 5/mGluR5” value ([2]; cerebral synaptosomes) was “no effect and None” and the “Response to Suramin KO-Sur/KO-Sal: Methionine Sulfoxide Reductase A/MSRA” value ([2]; cerebral synaptosomes) was “None”. For the same compound, the “Response to Suramin KO-Sur/KO-Sal: Nicotinic Acetylcholine Receptor alpha 7/nAchR7” value ([2]; cerebral synaptosomes) was “None”, the “Response to Suramin KO-Sur/KO-Sal: Nitro Tyrosine” value ([2]; cerebral synaptosomes) was “None” and the “Response to Suramin KO-Sur/KO-Sal: P2X1” value ([2]; cerebral synaptosomes) was “None”. For the same compound, the “Response to Suramin KO-Sur/KO-Sal: P2X2” value ([2]; cerebral synaptosomes) was “None”, the “Response to Suramin KO-Sur/KO-Sal: P2X3R” value ([2]; cerebral synaptosomes) was “Down” and the “Response to Suramin KO-Sur/KO-Sal: P2X4” value ([2]; cerebral synaptosomes) was “None”. The “Response to Suramin KO-Sur/KO-Sal: P2X5” value ([2]; cerebral synaptosomes) was “None”, the “Response to Suramin KO-Sur/KO-Sal: P2X6” value ([2]; cerebral synaptosomes) was “None” and the “Response to Suramin KO-Sur/KO-Sal: P2X7” value ([2]; cerebral synaptosomes) was “None”. The “Response to Suramin KO-Sur/KO-Sal: P2Y1R” value ([2]; cerebral synaptosomes) was “Up”, the “Response to Suramin KO-Sur/KO-Sal: P2Y2” value ([2]; cerebral synaptosomes) was “None” and the “Response to Suramin KO-Sur/KO-Sal: P2Y4” value ([2]; cerebral synaptosomes) was “None”. For the same compound, the “Response to Suramin KO-Sur/KO-Sal: PGC1a” value ([2]; cerebral synaptosomes) was “None”, the “Response to Suramin KO-Sur/KO-Sal: PI3K” value ([2]; cerebral synaptosomes) was “decreased and Down” and the “Response to Suramin KO-Sur/KO-Sal: PKC” value ([2]; cerebral synaptosomes) was “None”. For the same compound, the “Response to Suramin KO-Sur/KO-Sal: PPAR beta/delta” value ([2]; cerebral synaptosomes) was “Up”, the “Response to Suramin KO-Sur/KO-Sal: PPARa” value ([2]; cerebral synaptosomes) was “no effect and None” and the “Response to Suramin KO-Sur/KO-Sal: Postsynaptic Density protein 95/PSD95” value ([2]; cerebral synaptosomes) was “None”. For the same compound, the “Response to Suramin KO-Sur/KO-Sal: Steroidogenic acute regulatory protein/StAR” value ([2]; cerebral synaptosomes) was “Up”, the “Response to Suramin KO-Sur/KO-Sal: TAR DNA-binding protein 43/TDP43” value ([2]; cerebral synaptosomes) was “Down” and the “Response to Suramin KO-Sur/KO-Sal: TGFβ Receptor I” value ([2]; cerebral synaptosomes) was “None”. For the same compound, the “Response to Suramin KO-Sur/KO-Sal: mTOR” value ([2]; cerebral synaptosomes) was “not observed and None”, the “Response to Suramin KO-Sur/KO-Sal: nAchR beta2” value ([2]; cerebral synaptosomes) was “None” and the “Response to Suramin KO-Sur/KO-Sal: p-eIF2α(Ser51)” value ([2]; cerebral synaptosomes) was “None”. The “Response to Suramin KO-Sur/KO-Sal: p-mTOR(ser2448)” value ([2]; cerebral synaptosomes) was “not observed and None”, the “Response to Suramin KO-Sur/KO-Sal: pAkt(Ser473)” value ([2]; cerebral synaptosomes) was “None” and the “Response to Suramin KO-Sur/KO-Sal: pAkt(Thr308)” value ([2]; cerebral synaptosomes) was “None”. The “Response to Suramin KO-Sur/KO-Sal: pCAMKII(Thr286)” value ([2]; cerebral synaptosomes) was “None”, the “Response to Suramin KO-Sur/KO-Sal: pERK1/2(Thr202/Tyr204)” value ([2]; cerebral synaptosomes) was “None” and the “Response to Suramin KO-Sur/KO-Sal: pGSK3β (Ser9)” value ([2]; cerebral synaptosomes) was “Up”. The “Response to Suramin KO-Sur/KO-Sal: pPERK(Thr980)” value ([2]; cerebral synaptosomes) was “None”, the “Response to Suramin KO-Sur/KO-Sal: pPKC(Ser660)” value ([2]; cerebral synaptosomes) was “None” and the “Response to Suramin KO-Sur/KO-Sal: pS6K(Thr389)” value ([2]; cerebral synaptosomes) was “Up”. For the same compound, the “Response to Suramin KO-Sur/KO-Sal: pSTAT3(ser727)” value ([2]; cerebral synaptosomes) was “None”, the “decrease of CB1 receptor expression” value [2, 4] was 16% and the “decrease of P2X3 receptor expression” value [2, 4] was 18%. For the same compound, the “decrease of ionotropic GluR1 expression” value [2, 4] was 15%, the “decrease of synaptosomal APP levels” value [2, 4] was 23% and the “decrease of synaptosomal C1qA” value [2, 4] was 24%. The “decrease of synaptosomal TDP43” value [2, 4] was 27%, the “decrease of total APC expression” value [2, 4] was 29% and the “increase in IP3R1 expression” value [2, 4] was 101%. The “increase of 7-dehydrocholesterol reductase (7DHCR)” value [2, 4] was 24%, the “increase of P2Y1 receptor expression” value [2, 4] was 31% and the “increase of inhibitory phosphorylation of S6 kinase (S6K)” value [2, 4] was 47%. The “increase of inhibitory phosphorylation of glycogen synthase kinase 3β (GSK3β)” value [2, 4] was 75%, the “increase of steroidogenic acute regulatory (StAR) protein” value [2, 4] was 165% and the “Response to Suramin KO-Sur/KO-Sal: Nicotinic Acetylcholine Receptor alpha 7/nAchR7” value [2, 5] was “No effect”. For the same compound, the “Response to Suramin KO-Sur/KO-Sal: P2X7” value [2, 5] was “No effect”, the “Response to Suramin KO-Sur/KO-Sal: P2Y2” value [2, 5] was “No effect” and the “Response to Suramin KO-Sur/KO-Sal: pCAMKII(Thr286)” value [2, 5] was “No effect”. For the same compound, the “Response to Suramin KO-Sur/KO-Sal: pERK1/2(Thr202/Tyr204)” value [2, 5] was “No effect”, the “increase of PPARβ expression” value ([2]; purified brain synaptosomes, suramin vs saline) was 34% and the cerebral synaptosome ultrastructure [3] was “near-normal appearing cerebral synaptosomes”.
